Measurements published in patent US20080269306A1, “Antidepressant Medicament Comprising Idazoxan and a Selective Serotonin Reuptake Inhibitor” (ALPHA 2 PHARMACEUTICA AB, priority 2004, published 2008).

Assays:
[1] = tested on: noradrenaline output in the medial prefrontal cortex; experiment: Microdialysis: noradrenaline output in the medial prefrontal cortex of freely moving rats; type: in vivo, rat; conditions: for NORADRENALINE Medial Prefrontal Cortex, mean values: n = 5; for effect on noradrenaline output in the medial prefrontal cortex: citalopram alone, or low dose of Idazoxan added to citalopram
Experimental: (§1) Adult male BK1:WR (Wistar) rats weighing 230-390 g were used in all experiments. Animals arrived at least five days prior to experimental use and were housed (4 per cage [Makrolon IV]) in the animal facility under standard laboratory conditions with a 12 h light/dark cycle with lights on at 6.00 a.m. All experiments were performed between 8.00 a.m. and 6.00 p.m. Food and water were available ad lib. All experiments were approved by, and conducted in accordance with, the local Animal Ethics Committee (Stockholms Norra och Södra Försöksdjursetiska Kommittéer) (permits no. N216/00, N11/00). The probe implantation and dialysis procedure, as well as the biochemical analyses, were similar to those previously described (Hertel et al 1996, […] et al 1999). Anesthetized male BKI:WR (Wistar) rats (B&K Universal, Sollentuna, Sweden; sodium pentobarbital, 60 mg/kg, intraperitoneal; i.p.) were implanted with dialysis probes in the medial prefrontal cortex (mPFC) [AP: +2.6; ML: -0.6; DV: -5.2], relative to bregma and dural surface (Paxinos and Watson 1998). Dialysis occurred through a semipermeable membrane (AN69 Hospal) with an active surface length of 4 mm. Dialysis experiments were conducted approximately 48 h after surgery in freely moving rats. The dialysis probe was perfused with a physiological perfusion solution (147 mM sodium chloride, 3.0 mM potassium chloride, 1.3 mM calcium chloride, 1.0 mM magnesium chloride, and 1.0 mM sodium phosphate, pH 7.4) at a rate of 2.5 μl/min set by a microinfusion pump (Harvard Apparatus, Holliston, Mass.). On-line quantification of noradrenaline (NA) or dopamine (DA) in the dialysate was accomplished by high pressure liquid chromatography coupled to electrochemical detection. The placement of the probe was later verified in slices stained with neutral red. 2-Way Anova (treatment×time) followed by Neuman-Keuls Post Hoc comparison test.

[2] = tested on: dopamine output in the medial prefrontal cortex; experiment: Microdialysis: dopamine output in the medial prefrontal cortex of freely moving rats; type: in vivo, rat; conditions: for DOPAMINE Medial Prefrontal Cortex, mean values: n = 5; for effect on dopamine output in the medial prefrontal cortex: citalopram alone, or low dose of Idazoxan added to citalopram
Experimental: as §1

[3] = TIME 30 min, after citalopram 5 mg/kg s.c., before saline/idazoxan
[4] = TIME 60 min, after citalopram 5 mg/kg s.c., before saline/idazoxan
[5] = TIME 90 min, after citalopram 5 mg/kg s.c., before saline/idazoxan
[6] = TIME 120 min, citalopram 5 mg/kg s.c., then saline 1 ml/kg or idazoxan 1.5 mg/kg s.c. after the 90 min sample
[7] = TIME 150 min, citalopram 5 mg/kg s.c., then saline 1 ml/kg or idazoxan 1.5 mg/kg s.c. after the 90 min sample
[8] = TIME 180 min, citalopram 5 mg/kg s.c., then saline 1 ml/kg or idazoxan 1.5 mg/kg s.c. after the 90 min sample
[9] = TIME 210 min, citalopram 5 mg/kg s.c., then saline 1 ml/kg or idazoxan 1.5 mg/kg s.c. after the 90 min sample
[10] = TIME 240 min, citalopram 5 mg/kg s.c., then saline 1 ml/kg or idazoxan 1.5 mg/kg s.c. after the 90 min sample
[11] = TIME 270 min, citalopram 5 mg/kg s.c., then saline 1 ml/kg or idazoxan 1.5 mg/kg s.c. after the 90 min sample
[12] = awake freely moving rat, low dose of Idazoxan added to citalopram

CN(C)CCCC1(c2ccc(F)cc2)OCc2cc(C#N)ccc21 (stereo not drawn) [Citalopram + Saline, Citalopram]
NORADRENALINE Medial Prefrontal Cortex, mean values [1, 3]: 127.8 % Baseline
NORADRENALINE Medial Prefrontal Cortex, mean values [1, 4]: 118.8 % Baseline
NORADRENALINE Medial Prefrontal Cortex, mean values [1, 5]: 105.5 % Baseline
NORADRENALINE Medial Prefrontal Cortex, mean values [1, 6]: 114.6 % Baseline
NORADRENALINE Medial Prefrontal Cortex, mean values [1, 7]: 103.2 % Baseline
NORADRENALINE Medial Prefrontal Cortex, mean values [1, 8]: 81.6 % Baseline
NORADRENALINE Medial Prefrontal Cortex, mean values [1, 9]: 88.7 % Baseline
NORADRENALINE Medial Prefrontal Cortex, mean values [1, 10]: 83.7 % Baseline
NORADRENALINE Medial Prefrontal Cortex, mean values [1, 11]: 87.9 % Baseline
effect on noradrenaline output in the medial prefrontal cortex ([1]; awake freely moving rat): does not per se affect
DOPAMINE Medial Prefrontal Cortex, mean values [2, 3]: 129.4 % Baseline
DOPAMINE Medial Prefrontal Cortex, mean values [2, 4]: 104.5 % Baseline
DOPAMINE Medial Prefrontal Cortex, mean values [2, 5]: 109.1 % Baseline
DOPAMINE Medial Prefrontal Cortex, mean values [2, 6]: 127.8 % Baseline
DOPAMINE Medial Prefrontal Cortex, mean values [2, 7]: 110.3 % Baseline
DOPAMINE Medial Prefrontal Cortex, mean values [2, 8]: 97.7 % Baseline
DOPAMINE Medial Prefrontal Cortex, mean values [2, 9]: 88.0 % Baseline
DOPAMINE Medial Prefrontal Cortex, mean values [2, 10]: 104.5 % Baseline
DOPAMINE Medial Prefrontal Cortex, mean values [2, 11]: 94.1 % Baseline
effect on dopamine output in the medial prefrontal cortex ([2]; awake freely moving rat): does not per se affect

c1ccc2c(c1)OCC(C1=NCCN1)O2 (racemic) [Idazoxan, 2-(1,4-benzodioxan-2-yl)-2-imidazoline]
effect on noradrenaline output in the medial prefrontal cortex ([1]; awake freely moving rat): significant increase
duration of the increase in noradrenaline output [1, 12]: approximately 2 hours
effect on dopamine output in the medial prefrontal cortex ([2]; awake freely moving rat): significant increase
duration of the increase in dopamine output [2, 12]: approximately 2 hours
